Measurements from PubChem BioAssay (NCI).
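All cell lines were grown in 96-well plates and treated with compound for 48 hours. At the TGI there is no net growth.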

Assays:
Assay in all cases: NCI-60 cell line screen, 48 h
HCT-116 colon = test system: HCT-116 colon
NCI/ADR-RES ovarian = test system: NCI/ADR-RES ovarian
PC-3 prostate = test system: PC-3 prostate
HT29 colon = test system: HT29 colon
SK-MEL-2 melanoma = test system: SK-MEL-2 melanoma
786-0 renal = test system: 786-0 renal
K-562 leukemia = test system: K-562 leukemia
OVCAR-3 ovarian = test system: OVCAR-3 ovarian
A498 renal = test system: A498 renal
SW-620 colon = test system: SW-620 colon
A549 NSCLC = test system: A549 NSCLC
NCI-H226 lung = test system: NCI-H226 lung
M14 melanoma = test system: M14 melanoma

Row | Compound | TGI (HCT-116 colon) | TGI (NCI/ADR-RES ovarian) | TGI (PC-3 prostate) | TGI (HT29 colon) | TGI (SK-MEL-2 melanoma) | TGI (786-0 renal) | TGI (K-562 leukemia) | TGI (OVCAR-3 ovarian) | TGI (A498 renal) | TGI (SW-620 colon) | TGI (A549 NSCLC) | TGI (NCI-H226 lung) | TGI (M14 melanoma)
1 | O=C(NNC(=O)c1ccccc1O)c1ccc(O)cc1 | > 100 µM | 90.9 µM | > 100 µM | > 100 µM | 94.7 µM | > 100 µM | > 100 µM | > 100 µM | > 100 µM | > 100 µM | > 100 µM | > 100 µM | > 100 µM
2 | COc1ccc(C(=O)Nc2ccc3oc(-c4ccccc4)nc3c2)cc1 | > 100 µM | > 100 µM | > 100 µM | > 100 µM | > 100 µM | > 100 µM | > 100 µM | > 100 µM | > 100 µM | > 100 µM | > 100 µM | > 100 µM | > 100 µM
3 | CC(=O)OCC(Br)C1(C)CCC(C(C)(C)Br)O1 (centres undefined) | > 100 µM | > 100 µM | > 100 µM | > 100 µM | > 100 µM | > 100 µM | > 100 µM | > 100 µM | > 100 µM | > 100 µM | > 100 µM | > 100 µM | > 100 µM
4 | O=C(/C=C(\O)c1ccccc1)c1cc(-c2ccccc2)n(-c2ccccc2)n1 | > 100 µM | > 100 µM | > 100 µM | 18.7 µM | > 100 µM | 67.8 µM | > 100 µM | > 100 µM | > 100 µM | > 100 µM | 24.9 µM | 25.2 µM | 55.7 µM
5 | O=c1[nH]c2c(c(=O)[nH]1)SSC2 | 13.8 µM | 8.76 µM | > 71.1 µM | 40 µM | 14.5 µM | 17.5 µM | 5.52 µM | 38 µM | 52 µM | 29.9 µM | > 63.5 µM | 41.1 µM | 4.91 µM
6 | COc1cc(C2C(Cl)C(=O)N2NC(=O)c2ccc(NC(C)=O)cc2OC)ccc1O (centres undefined) | 33.2 µM | > 100 µM | 55 µM | 34.1 µM | 29.9 µM | 33.3 µM | 55.2 µM | 53.5 µM | 37.5 µM | 76.3 µM | > 100 µM | 43.7 µM | 33.9 µM
7 | CC(=O)O[C@@H](C1C[C@@H](C)[C@H]2[C@@](O)(O1)[C@H](O)[C@@]1(C)C3=CC[C@H]4C(C)(C)[C@@H](OC5OCC(O)C(O)C5O)CC[C@@]45C[C@@]35CC[C@]21C)C(C)(C)O (some centres undefined) | 41.5 µM | > 100 µM | 50.7 µM | > 100 µM | 36.9 µM | 63.6 µM | > 100 µM | 41.9 µM | 63 µM | > 100 µM | > 100 µM | 45.9 µM | > 100 µM
8 | O=C1c2ccccc2-c2c1c(-c1cccc(Br)c1)nc1ccc3ccccc3c21 | > 100 µM | > 100 µM | > 100 µM | > 100 µM | > 100 µM | > 100 µM | > 100 µM | > 100 µM | > 100 µM | > 100 µM | > 100 µM | > 100 µM | > 100 µM
